Values quoted from earlier work, collected in US6441198B1, “Podophyllotoxin dimer as DNA topoisomerase II inhibitors, and a process for the preparation therefore” (Council of Scientific and Industrial Research, priority 2000, dated 2002).

Columns and labels:
[1] = test system: human DNA topoisomerase II; settings: relative to etoposide
[2] = test system: cellular protein-DNA complex formation; settings: relative to etoposide
[3] = test system: human tumour cell lines

Compound: COc1cc(C2c3cc4c(cc3C(Nc3ccc(F)cc3)C3COC(=O)C23)OCO4)cc(OC)c1O (stereo not drawn) [NPF, 4′-0-demethyl-4β-(4″-fluoroanilino)-4-desoxypodophyllotoxin]
- potency in inhibiting human DNA topoisomerase II compared to etoposide [1]: 10 fold
- activity in cellular protein-DNA complex formation compared to etoposide [2]: 113 times
- activity in in vitro human tumour cell lines assay [3]: very active
